# Test results published in patent US5041445A, “3-[1-thiazolidinylbutyl-4-piperazinyl]-1H-indazoles” (Hoechst-Roussel Pharmaceuticals Incorporated, priority 1990, dated 1991).
# Like-named read-outs stand apart in the source and are kept apart here.
# Test system: apomorphine climbing
# Test: Climbing Mouse Assay (CMA), antagonism of apomorphine-induced climbing
# Type: in vivo, CK-1 male mice
# Conditions: linear regression, read-out: Climbing Mice Assay ED50
# From the text: The compounds of the present invention are potentially useful as antipsychotic agents as determined in the Climbing Mouse Assay (CMA).
# The Climbing Mouse Assay is described by P. Protais, et al., Psychopharmacol., 50, 1 (1976) and B. Costall, Eur. J. Pharmacol., 50, 39 (1978).
# The subject CK-1 male mice (23-27 grams) are group-housed under standard laboratory conditions. The mice are individually placed in wire mesh stick cages (4"×4" by 10") and are allowed one hour for adaptation and exploration of the new environment. The apomorphine is injected subcutaneously at 1.5 mg/kg, a dose causing climbing in all subjects for 30 minutes. Compounds to be tested for antipsychotic activity are injected intraperitoneally (i.p.) 30 minutes prior to the apomorphine challenge at a screening dose of 10 mg/kg.
# For evaluation of climbing, 3 readings are taken at 10, 20 and 30 minutes after apomorphine administration according to the following scale: […]
# ______________________________________
# 4 paws on bottom (no climbing)
# 2 paws on the wall (rearing)
# 4 paws on the wall (full climb)
# Mice consistently climbing before the injection of apomorphine are discarded.
# With full-developed apomorphine climbing, the animals are hanging onto the cage walls, rather motionless, over longer periods of time. By contrast, climbs due to mere motion stimulation usually last only a few seconds.
# The climbing scores are individually totaled (maximum score: 6 per mouse over 3 readings) and the total score of the control group (vehicle intraperitoneally; apomorphine subcutaneously) is set to 100%. ED50 values with 95% confidence limits, calculated by linear regression analyses of some of the compounds of this invention are presented in Table 1.
# [1] = ip, 30 minutes prior to apomorphine 1.5 mg/kg s.c.
smiles,measurement,setting,value
"CN1CCN(C2=Nc3cc(Cl)ccc3Nc3ccccc32)CC1 [Clozapine, reference compound]",ED50,[1],8.1 mg/kg
CC1SCN(CCCCN2CCN(c3n[nH]c4cc(F)ccc34)CC2)C1=O (centres unmarked) [3-{4-[1-(6-Fluoro-1H-indazol-3-yl)-piperazinyl]butyl}-5-methyl-4-thiazolidinone],ED50,[1],0.11 mg/kg
O=C1N(CCCCN2CCN(c3n[nH]c4ccccc34)CC2)CSC12CCCC2 [3-(4-(1-[1H-Indazol-3-yl]-4-piperazinyl)butyl)-1-thia-3-azaspiro[4.4]nonan-4-one],ED50,[1],1.3 mg/kg
same,ED50,"po, apomorphine 1.5 mg/kg s.c.",2.7 mg/kg
O=C1N(CCCCN2CCN(c3n[nH]c4cc(F)ccc34)CC2)CSC12CCCCC2 [3-{4-[1-(6-Fluoro-1H-indazol-3-yl)-4-piperazinyl]butyl}-1-thia-3-azaspiro[4.5]decan-4-one],ED50,[1],0.04 mg/kg
same,ED50,"po, apomorphine 1.5 mg/kg s.c.",0.67 mg/kg
"CC1(C)SCN(CCCCN2CCN(c3n[nH]c4ccccc34)CC2)C1=O [3-(4-(1-[1H-Indazol-3-yl]-4-piperazinyl)-butyl)-5,5-dimethyl-4-thiazolidinone]",ED50,[1],1.3 mg/kg
O=C1N(CCCCN2CCN(c3n[nH]c4ccccc34)CC2)CSC12CCCCC2 [3-(4-(1-[1H-indazol-3-yl]-4-piperazinyl)butyl)-1-thia-3-azaspiro[4.5]decan-4-one],ED50,[1],0.65 mg/kg
